From US11731944B2, “SARS-CoV-2 inhibitors for treating coronavirus infections” (priority 2021, dated 2023)
Where two headings read alike, the source gives them in different places.

Target: SARS-CoV-2 MPRO (Severe acute respiratory syndrome coronavirus 2 (2019-nCoV) (SARS-CoV-2), UniProt P0DTD1)
Assay: SARS-CoV-2 Mpro enzymatic assay (FRET substrate cleavage)
Assay type: biochemical
Conditions: 30 min pre-incubation at RT, 60 min at 30° C., 10 doses from 25 μM
[1] = C-His6-tagged SARS-CoV-2 MPRO 25 nM, read-out: M pro IC50
[2] = M pro IC50, C-His6-tagged SARS-CoV-2 MPRO 25 nM

SMILES | IC50 [1] [nM] | IC50 [2] [nM]
C[C@](C(=O)NC1CCOC1)(c1cncnc1)N(C(=O)[C@H](F)Cl)c1ccc(OC(F)(F)F)cc1 (single isomer, unassigned) [Example 6a] | < 100 | 
C[C@](C(=O)NC1CCOC1)(c1cncnc1)N(C(=O)[C@H](F)Cl)c1ccc(OC(F)(F)F)cc1 (single isomer, unassigned) [Example 6b] | < 100 | 
C[C@@](C(=O)NC1CCOC1)(c1cncnc1)N(C(=O)[C@H](F)Cl)c1ccc(OC(F)(F)F)cc1 (single isomer, unassigned) [Example 6c] | 1000 to 10000 | 
C[C@@](C(=O)NC1CCOC1)(c1cncnc1)N(C(=O)[C@H](F)Cl)c1ccc(OC(F)(F)F)cc1 (single isomer, unassigned) [Example 6d] | > 10000 | 
Cn1ccc([C@@](C)(C(=O)NC2CCC(F)(F)CC2)N(C(=O)[C@H](F)Cl)c2ccc(OC(F)(F)F)cc2)cc1=O (single isomer, unassigned) [Example 13b] |  | > 10000
C[C@](C(=O)NC1CCC(F)(F)CC1)(c1cncnc1)N(C(=O)[C@H](F)Cl)c1ccc(SC(F)(F)F)cc1 (single isomer, unassigned) [Example 33a] |  | < 100
CC1(C)COCC[C@H]1NC(=O)[C@](C)(c1cncnc1)N(C(=O)[C@H](F)Cl)c1ccc(OC(F)(F)F)cc1 (single isomer, unassigned) [Example 76c] |  | > 10000
CC1(C)COCC[C@@H]1NC(=O)[C@](C)(c1cncnc1)N(C(=O)[C@H](F)Cl)c1ccc(OC(F)(F)F)cc1 (single isomer, unassigned) [Example 76d] |  | > 10000
CC1(C)C[C@H](NC(=O)[C@@](C)(c2cncnc2)N(C(=O)[C@H](F)Cl)c2ccc(OC(F)(F)F)cc2)CCO1 (single isomer, unassigned) [Example 77a] | < 100 | 
CC1(C)C[C@H](NC(=O)[C@](C)(c2cncnc2)N(C(=O)[C@H](F)Cl)c2ccc(OC(F)(F)F)cc2)CCO1 (single isomer, unassigned) [Example 77c] |  | 1000 to 10000
CC1(C)C[C@@H](NC(=O)[C@](C)(c2cncnc2)N(C(=O)[C@H](F)Cl)c2ccc(OC(F)(F)F)cc2)CCO1 (single isomer, unassigned) [Example 77d] |  | > 10000
C[C@@](C(=O)NC1CCC2(CC1)COC2)(c1cncnc1)N(C(=O)[C@H](F)Cl)c1ccc(OC(F)(F)F)cc1 (single isomer, unassigned) [Example 107b] |  | > 10000
CC(C(=O)N[C@H]1CC[C@H](OC(F)(F)F)CC1)(c1cncnc1)N(C(=O)[C@H](F)Cl)c1ccc(OC(F)(F)F)cc1 (stereo in doubt) [Example 8] |  | < 100
C[C@@](C(=O)NC1CCC(F)(F)CC1)(c1cncnc1)N(C(=O)[C@H](F)Cl)c1ccc(-c2cncs2)cc1 [Example 1b] | 1000 to 10000 | 
C[C@](C(=O)NC1CCC(F)(F)CC1)(c1cncnc1)N(C(=O)[C@H](F)Cl)c1ccc(-c2ccno2)cc1 [Example 2a] | < 100 | 
C[C@@](C(=O)NC1CCC(F)(F)CC1)(c1cncnc1)N(C(=O)[C@H](F)Cl)c1ccc(-c2ccno2)cc1 [Example 2b] | 1000 to 10000 | 
[2H][C@](C(=O)NC1CCC(F)(F)CC1)(c1cncnc1)N(C(=O)[C@H](F)Cl)c1ccc(OC(F)(F)F)cc1 [Example 3a] | < 100 | 
[2H][C@@](C(=O)NC1CCC(F)(F)CC1)(c1cncnc1)N(C(=O)[C@H](F)Cl)c1ccc(OC(F)(F)F)cc1 [Example 3b] | > 10000 | 
C[C@](C(=O)NC1CCC(F)(F)CC1)(c1cncnc1)N(C(=O)[C@H](F)Cl)c1ccc(OC(F)(F)F)cc1 [Example 4a] | < 100 | 
C[C@@](C(=O)NC1CCC(F)(F)CC1)(c1cncnc1)N(C(=O)[C@H](F)Cl)c1ccc(OC(F)(F)F)cc1 [Example 4b] | 1000 to 10000 | 

SMILES | IC50 [1] [nM] | IC50 [2] [nM]
C[C@](C(=O)NC1CCOCC1)(c1cncnc1)N(C(=O)[C@H](F)Cl)c1ccc(OC(F)(F)F)cc1 [Example 5a] | < 100 | 
C[C@@](C(=O)NC1CCOCC1)(c1cncnc1)N(C(=O)[C@H](F)Cl)c1ccc(OC(F)(F)F)cc1 [Example 5b] | 1000 to 10000 | 
C[C@](C(=O)NC1CCC(F)(F)CC1)(c1cncc(F)c1)N(C(=O)[C@H](F)Cl)c1ccc(OC(F)(F)F)cc1 [Example 11a] |  | < 100
C[C@@](C(=O)NC1CCC(F)(F)CC1)(c1cncc(F)c1)N(C(=O)[C@H](F)Cl)c1ccc(OC(F)(F)F)cc1 [Example 11b] |  | 1000 to 10000
Cn1ccc([C@](C)(C(=O)NC2CCC(F)(F)CC2)N(C(=O)[C@H](F)Cl)c2ccc(OC(F)(F)F)cc2)cc1=O [Example 13a] | > 10000 | 
C[C@](C(=O)NC1CCOCC1)(c1cncc(F)c1)N(C(=O)[C@H](F)Cl)c1ccc(OC(F)(F)F)cc1 [Example 14a] | < 100 | 
C[C@@](C(=O)NC1CCOCC1)(c1cncc(F)c1)N(C(=O)[C@H](F)Cl)c1ccc(OC(F)(F)F)cc1 [Example 14b] | > 10000 | 
C[C@](C(=O)NC1CC(F)(F)C1)(c1cncnc1)N(C(=O)[C@H](F)Cl)c1ccc(OC(F)(F)F)cc1 [Example 18a] | < 100 | 
C[C@@](C(=O)NC1CC(F)(F)C1)(c1cncnc1)N(C(=O)[C@H](F)Cl)c1ccc(OC(F)(F)F)cc1 [Example 18b] | 1000 to 10000 | 
C[C@](C(=O)NC1CCC(F)(F)CC1)(c1cncnc1)N(C(=O)[C@H](F)Cl)c1ccc(S(F)(F)(F)(F)F)cc1 [Example 22a] | < 100 | 
C[C@@](C(=O)NC1CCC(F)(F)CC1)(c1cncnc1)N(C(=O)[C@H](F)Cl)c1ccc(S(F)(F)(F)(F)F)cc1 [Example 22b] | 1000 to 10000 | 
C[C@](C(=O)NC1CCOCC1)(c1cncnc1)N(C(=O)[C@H](F)Cl)c1ccc(S(F)(F)(F)(F)F)cc1 [Example 23a] | 1000 to 10000 | 
C[C@@](C(=O)NC1CCOCC1)(c1cncnc1)N(C(=O)[C@H](F)Cl)c1ccc(S(F)(F)(F)(F)F)cc1 [Example 23b] | < 100 | 
C[C@](C(=O)NC1CCC(F)(F)CC1)(c1cncnc1)N(C(=O)[C@H](F)Cl)c1ccc(OC(F)(F)F)cc1F [Example 26a] |  | 100 to 1000
C[C@@](C(=O)NC1CCC(F)(F)CC1)(c1cncnc1)N(C(=O)[C@H](F)Cl)c1ccc(OC(F)(F)F)cc1F [Example 26b] |  | 1000 to 10000
C[C@](C(=O)NC1CCOCC1)(c1cncnc1)N(C(=O)[C@H](F)Cl)c1ccc(OC(F)(F)F)cc1F [Example 27a] |  | 100 to 1000
C[C@](C(=O)NC1CCC(F)(F)CC1)(c1cncnc1)N(C(=O)[C@H](F)Cl)c1ccc(C2(C(F)(F)F)CC2)cc1 [Example 28a] | < 100 | 
C[C@@](C(=O)NC1CCC(F)(F)CC1)(c1cncnc1)N(C(=O)[C@H](F)Cl)c1ccc(C2(C(F)(F)F)CC2)cc1 [Example 28b] | > 10000 | 
C[C@](C(=O)NC1CCOCC1)(c1cncnc1)N(C(=O)[C@H](F)Cl)c1ccc(C2(C(F)(F)F)CC2)cc1 [Example 29a] | 100 to 1000 | 
C[C@@](C(=O)NC1CCOCC1)(c1cncnc1)N(C(=O)[C@H](F)Cl)c1ccc(C2(C(F)(F)F)CC2)cc1 [Example 29b] | > 10000 | 

SMILES | IC50 [1] [nM] | IC50 [2] [nM]
C[C@](C(=O)NC1CCOCC1)(c1cncnc1)N(C(=O)[C@H](F)Cl)c1ccc(OC(F)(F)C(F)(F)F)cc1 [Example 32a] |  | < 100
C[C@@](C(=O)NC1CCOCC1)(c1cncnc1)N(C(=O)[C@H](F)Cl)c1ccc(OC(F)(F)C(F)(F)F)cc1 [Example 32b] | 1000 to 10000 | 
C[C@@](C(=O)NC1CCC(F)(F)CC1)(c1cncnc1)N(C(=O)[C@H](F)Cl)c1ccc(SC(F)(F)F)cc1 [Example 33b] | 100 to 1000 | 
C[C@](C(=O)NC1CCOCC1)(c1cncnc1)N(C(=O)[C@H](F)Cl)c1ccc(SC(F)(F)F)cc1 [Example 34a] | < 100 | 
C[C@@](C(=O)NC1CCOCC1)(c1cncnc1)N(C(=O)[C@H](F)Cl)c1ccc(SC(F)(F)F)cc1 [Example 34b] | > 10000 | 
C[C@](C(=O)NCCc1cccc(F)c1)(c1cncnc1)N(C(=O)[C@H](F)Cl)c1ccc(OC(F)(F)F)cc1 [Example 36a] | < 100 | 
C[C@@](C(=O)NCCc1cccc(F)c1)(c1cncnc1)N(C(=O)[C@H](F)Cl)c1ccc(OC(F)(F)F)cc1 [Example 36b] | > 10000 | 
CC1(C)COCC[C@H]1NC(=O)[C@@](C)(c1cncnc1)N(C(=O)[C@H](F)Cl)c1ccc(OC(F)(F)F)cc1 [Example 76a] | < 100 | 
CC1(C)COCC[C@@H]1NC(=O)[C@@](C)(c1cncnc1)N(C(=O)[C@H](F)Cl)c1ccc(OC(F)(F)F)cc1 [Example 76b] | 100 to 1000 | 
CC1(C)C[C@@H](NC(=O)[C@@](C)(c2cncnc2)N(C(=O)[C@H](F)Cl)c2ccc(OC(F)(F)F)cc2)CCO1 [Example 77b] | < 100 | 
C[C@](C(=O)NC1CCC(F)(F)CC1)(c1cncnc1)N(C(=O)[C@H](F)Cl)c1ccc(OC(F)(F)C(F)(F)F)cc1 [Example 90a] | < 100 | 
C[C@@](C(=O)NC1CCC(F)(F)CC1)(c1cncnc1)N(C(=O)[C@H](F)Cl)c1ccc(OC(F)(F)C(F)(F)F)cc1 [Example 90b] | 100 to 1000 | 
C[C@](C(=O)NC1CCC(F)(F)CC1)(c1cncnc1)N(C(=O)[C@H](F)Cl)c1ccc(OC(F)(F)Cl)cc1 [Example 92a] | < 100 | 
C[C@@](C(=O)NC1CCC(F)(F)CC1)(c1cncnc1)N(C(=O)[C@H](F)Cl)c1ccc(OC(F)(F)Cl)cc1 [Example 92b] | 100 to 1000 | 
C[C@](C(=O)NC1CCC(F)(F)CC1)(c1cncc(F)c1)N(C(=O)[C@H](F)Cl)c1ccc(SC(F)(F)F)cc1 [Example 95a] | < 100 | 
C[C@@](C(=O)NC1CCC(F)(F)CC1)(c1cncc(F)c1)N(C(=O)[C@H](F)Cl)c1ccc(SC(F)(F)F)cc1 [Example 95b] | 1000 to 10000 | 
C[C@](C(=O)NC1CCOCC1)(c1cncc(F)c1)N(C(=O)[C@H](F)Cl)c1ccc(S(F)(F)(F)(F)F)cc1 [Example 97a] | < 100 | 
C[C@@](C(=O)NC1CCOCC1)(c1cncc(F)c1)N(C(=O)[C@H](F)Cl)c1ccc(S(F)(F)(F)(F)F)cc1 [Example 97b] | > 10000 | 
C[C@](C(=O)NC1CCOCC1)(c1cncc(F)c1)N(C(=O)[C@H](F)Cl)c1ccc(OC(F)(F)Cl)cc1 [Example 98a] | < 100 | 
